# Experimental data from patent US6642216B2, “Isoprenoid pathway inhibitors for stimulating bone growth” (ZymoGenetics Corporation, priority 1996, dated 2003).
# Key:
# [1] = tested on: neonatal mouse calvaria; assay: Neonatal mouse calvaria assay (in vitro bone formation); assay type: cell-based; set-up: Osteoblast Number, % increase over vehicle control / New Bone Area, % increase over vehicle control: concentration or dose not given beside the values
# Procedure: Briefly, four days after birth, the front and parietal bones of ICR Swiss white mouse pups are removed by microdissection and split along the sagittal suture.
# Three μm sections of the calvaria are prepared. Representative sections are selected for histomorphometric assessment of bone formation or bone resorption. Bone changes are measured on sections cut 200 μm apart. Osteoblasts and osteoclasts are identified by their distinctive morphology.
# Selected compounds and appropriate controls were assayed in vitro (ex vivo) for bone formation activity (described above in “Neonatal Mouse Calvaria Assay (in vitro)”). Histomorphometrical assessments of ex vivo calvaria were carried out using an OsteoMetrics bone morphometry measurement program, according to the manufacturer's instructions. Measurements were determined using either a 10- or 20-fold objective with a standard point counting eyepiece graticule.
# New bone formation was determined (using a 10× objective) by measuring the new bone area formed in one field in 3 representative sections of each bone (4 bones per group). Each measurement was carried out ½ field distance from the end of the suture. Both total bone and old bone area were measured. Data were expressed as new bone area in mm^2.
# Osteoblast numbers were determined by point counting. The number of osteoblast cells lining the bone surface on both sides of the bone were counted in one field using a 20× objective. Data were expressed as osteoblast numbers/mm of bone surface.
# The results were calculated as new bone area in mm^2×10^−3, as above.
# [2] = tested on: serum response element (SRE)-luciferase reporter gene / CRE-luciferase reporter gene; assay: negative control OBSRE (SRE-luciferase) and/or glucagon (CRE-luciferase) assays; assay type: cell-based, murine
# From the text: In the negative control OBSRE assay, a murine osteoblast cell line, such as CCC-4 expressing a serum response element (SRE)-luciferase reporter gene is used (see WO96/07733). In the negative control glucagon assay, a glucagon receptor-positive BHK cell expressing a CRE-luciferase reporter gene is used (see U.S. Pat. No. 5,698,672).
# [3] = tested on: BMP-2 promoter; assay: ABA assay: BMP-2 promoter-luciferase reporter in 2T3-BMP-2-LUC osteoblast cells; assay type: cell-based, mouse; conditions: for % 59-0008 Response / Fold increase over negative control: Experiment 1
# Procedure: These transformed cells are then evaluated for the production of the reporter gene product; compounds that activate the BMP promoter will drive production of the reporter protein, which can be readily assayed.
# The cells were cultured using α-MEM, 10% FCS with 1% penicillin/streptomycin and 1% glutamine (“plating medium”), and were split 1:5 once per week. For the assay, the cells were resuspended in a plating medium containing 4% FCS, plated in microtiter plates at a concentration of 5×10^3 cells (in 50 μl)/well, and incubated for 24 hours at 37° C. in 5% CO2. To initiate the assay, 50 μl of the test compound or the control in DMSO was added at 2× concentration to each well, so that the final volume was 100 μl. The final serum concentration was 2% FCS, and the final DMSO concentration was 1%.
# The treated cells were incubated for 24 hours at 37° C. and 5% CO2. The medium was then removed, and the cells were rinsed three times with PBS. After removal of excess PBS, 25 μl of 1× cell culture lysing reagent (Promega #E153A) was added to each well and incubated for at least ten minutes. Optionally, the plates/samples could be frozen at this point. To each well was added 50 μl of luciferase substrate (Promega #E152A; 10 ml Promega luciferase assay buffer per 7 mg Promega luciferase assay substrate). Luminescence was measured on an automated 96-well luminometer, and was expressed as either picograms of luciferase activity per well or as picograms of luciferase activity per microgram of protein.
# Alternatively, the reactivity of a compound to be tested can be compared directly to a negative control containing no compound.
# [4] = tested on: ICR Swiss white mice calvaria; assay: In vivo murine calvarial bone growth assay; set-up: species or system mouse; conditions: 12.5 μg/kg/day
# Procedure: Male ICR Swiss white mice, aged 4-6 weeks and weighing 13-26 gm, are employed, using 4-5 mice per group. The calvarial bone growth assay is performed as described in PCT application WO 95/24211, incorporated by reference. Briefly, the test compound or appropriate control vehicle is injected into the subcutaneous tissue over the right calvaria of normal mice. Typically, the control vehicle is the vehicle in which the compound was solubilized, and is PBS containing 5% DMSO or is PBS containing Tween (2 μl/10 ml). The animals are sacrificed on day 14 and bone growth measured by histomorphometry. Bone samples for quantitation are cleaned from adjacent tissues and fixed in 10% buffered formalin for 24-48 hours, decalcified in 14% EDTA for 1-3 weeks, processed through graded alcohols; and embedded in paraffin wax. Three to five μm sections of the calvaria are prepared, and representative sections are selected for histomorphometric assessment of the effects on bone formation and bone resorption. Sections are measured by using a camera lucida attachment to trace directly the microscopic image onto a digitizing plate. Bone changes are measured on sections cut 200 μm apart, over 4 adjacent 1×1 mm fields on both the injected and noninjected sides of the calvaria. New bone is identified by its characteristic woven structure, and osteoclasts and osteoblasts are identified by their distinctive morphology. Histomorphometry software (OsteoMeasure, Osteometrix, Inc., Atlanta) is used to process digitizer input to determine cell counts and measure areas or perimeters.
# The results are reported as a measurement of total bone area (and % increase in area over vehicle control), as shown below.
# [5] = under these conditions (0.1-1000 μM)
compound,measurement,setting,value
"NCCC(O)(P(=O)(O)O)P(=O)(O)O [Pamidronate, pamidronate]",New Bone Area,"[1]; other bisphosphonates, 10 μM",6.0 ± 0.5 mm^2 × 10^−3
same,New Bone Area,"[1]; other bisphosphonates, 100 μM",5.8 ± 0.6 mm^2 × 10^−3
same,New Bone Area,"[1]; other bisphosphonates, 1000 μM",5.2 ± 0.6 mm^2 × 10^−3
same,effect on new bone area,[1]; [5],negligible effects
"CCC(C)(C)C(=O)O[C@H]1C[C@@H](C)C=C2C=C[C@H](C)[C@H](CC[C@@H](O)C[C@@H](O)CC(=O)O)[C@H]21 [Hydrolyzed simvastatin, hydrolyzed simvastatin]",dose-dependent stimulatory effect in control assays,[2],not in control assays
same,dose-dependent stimulatory effect in the ABA assay,[3],dose-dependent stimulatory effect
same,% 59-0008 Response,[3]; 0.195312 μg/ml,−0.680%
same,Fold increase over negative control,[3]; 0.195312 μg/ml,0.9 fold
same,% 59-0008 Response,[3]; 0.390625 μg/ml,1.520%
same,Fold increase over negative control,[3]; 0.390625 μg/ml,1.1 fold
same,% 59-0008 Response,[3]; 0.78125 μg/ml,10.430%
same,Fold increase over negative control,[3]; 0.78125 μg/ml,1.6 fold
same,% 59-0008 Response,[3]; 1.5625 μg/ml,36.190%
same,Fold increase over negative control,[3]; 1.5625 μg/ml,3.4 fold
same,% 59-0008 Response,[3]; 3.125 μg/ml,75.860%
same,Fold increase over negative control,[3]; 3.125 μg/ml,6.0 fold
same,% 59-0008 Response,[3]; 6.25 μg/ml,150.260%
same,Fold increase over negative control,[3]; 6.25 μg/ml,10.9 fold
same,% 59-0008 Response,[3]; 12.5 μg/ml,156.230%
same,Fold increase over negative control,[3]; 12.5 μg/ml,11.3 fold
same,% 59-0008 Response,[3]; 25 μg/ml,200.230%
same,Fold increase over negative control,[3]; 25 μg/ml,14.3 fold
same,% 59-0008 Response,[3]; 50 μg/ml,44.520%
same,Fold increase over negative control,[3]; 50 μg/ml,3.9 fold
same,% 59-0008 Response,[3]; 100 μg/ml,−15.230%
same,Fold increase over negative control,[3]; 100 μg/ml,−0.0 fold
same,% 59-0008 Response,[3]; 200 μg/ml,−15.140%
same,Fold increase over negative control,[3]; 200 μg/ml,−0.0 fold
"O=P(O)(O)C(Cl)(Cl)P(=O)(O)O [Clodronate, clodronate]",New Bone Area,"[1]; other bisphosphonates, 10 μM",4.8 ± 1.3 mm^2 × 10^−3
same,New Bone Area,"[1]; other bisphosphonates, 100 μM",4.6 ± 0.6 mm^2 × 10^−3
same,New Bone Area,"[1]; other bisphosphonates, 1000 μM",3.5 ± 0.5 mm^2 × 10^−3
same,effect on new bone area,[1]; [5],negligible effects
"O=P(O)(O)C(O)(Cc1cccnc1)P(=O)(O)O [Risedronate, risedronate]",effect on new bone area,[1]; 10 μM and 100 μM,significant increases in new bone area
same,New Bone Area,"[1]; other bisphosphonates, 10 μM",8.5 ± 0.5 mm^2 × 10^−3
same,New Bone Area,"[1]; other bisphosphonates, 100 μM",7.3 ± 1.9 mm^2 × 10^−3
same,New Bone Area,"[1]; other bisphosphonates, 1000 μM",Toxic
"NCCCC(O)(P(=O)(O)O)P(=O)(O)O [Alendronate, alendronate]",New Bone Area,"[1]; other bisphosphonates, 0.1 μM",3.5 ± 0.3 mm^2 × 10^−3
same,New Bone Area,"[1]; other bisphosphonates, 1 μM",5.2 ± 0.5 mm^2 × 10^−3
same,New Bone Area,"[1]; other bisphosphonates, 10 μM",3.3 ± 0.6 mm^2 × 10^−3
same,New Bone Area,"[1]; other bisphosphonates, 100 μM",Toxic
same,effect on new bone area,[1]; [5],negligible effects
"bFGF: control factor, ""gold standard"" agent for bone growth",New Bone Area,"[1]; Experiment 1, 3 days",5.7 mm^2 × 10^−3
same,"New Bone Area, % increase over vehicle control","[1]; Experiment 1, 3 days",19%
same,Osteoblast Number,"[1]; Experiment 1, 3 days",179.25 Obs/field
same,"Osteoblast Number, % increase over vehicle control","[1]; Experiment 1, 3 days",84%
same,New Bone Area,"[1]; Experiment 1, 7 days",18.1 mm^2 × 10^−3
same,"New Bone Area, % increase over vehicle control","[1]; Experiment 1, 7 days",132%
same,Osteoblast Number,"[1]; Experiment 1, 7 days",168.7 Obs/field
same,"Osteoblast Number, % increase over vehicle control","[1]; Experiment 1, 7 days",82%
same,% increase in total bone area over vehicle control,[4],45%
same,Total Bone Area,[4],242 μm^2
"CCCCCN(C)CCC(O)(P(=O)(O)O)P(=O)(O)O [Ibandronate, ibandronate]",effect on bone formation (dose response curves),[1]; 10 μM,significant increase of bone formation
same,New Bone Area,"[1]; Experiment 1, 10 μM",8.3 ± 0.7 mm^2 × 10^−3
same,New Bone Area,"[1]; Experiment 1, 100 μM",Toxic
same,New Bone Area,"[1]; Experiment 1, 1000 μM",Toxic
same,New Bone Area,"[1]; Experiment 2, 0.01 μM",3.5 ± 0.43 mm^2 × 10^−3
same,New Bone Area,"[1]; Experiment 2, 0.1 μM",3.2 ± 0.56 mm^2 × 10^−3
same,New Bone Area,"[1]; Experiment 2, 1 μM",4.9 ± 1.2 mm^2 × 10^−3
same,New Bone Area,"[1]; Experiment 2, 10 μM",7.2 ± 0.7 mm^2 × 10^−3
same,New Bone Area,"[1]; Experiment 2, 100 μM",Toxic
same,New Bone Area,"[1]; Experiment 2, 1000 μM",Toxic
same,New Bone Area,"[1]; Experiment 3, 0.1 μM",6.2 ± 0.6 mm^2 × 10^−3
same,New Bone Area,"[1]; Experiment 3, 1 μM",7.5 ± 0.7 mm^2 × 10^−3
same,New Bone Area,"[1]; Experiment 3, 10 μM",9.5 ± 2.4 mm^2 × 10^−3
same,New Bone Area,"[1]; Experiment 3, 100 μM",Toxic
same,New Bone Area,"[1]; combination study, IBN (1 μM), ibandronate 1 μM alone",3.95 ± 0.28 mm^2 × 10^−3
same,New Bone Area,"[1]; combination study, IBN (10 μM), ibandronate 10 μM alone",6.03 ± 1.56 mm^2 × 10^−3
